Assay results reported in patent US7834013B2, “Aminophenylcyclopropyl carboxylic acids and derivatives as agonists to GPR40” (GlaxoSmithKline LLC, priority 2003, dated 2010).
Structures can show the parent of a compound that is named as a salt.

Biological target: T1, GPR40 (Homo sapiens, UniProt O14842)
T1 construct: expressed in transfected cells
Test: GPR40 SAR Primary Assay (Elk-1/Gal4-luc+ reporter, luciferase activity)
Assay type: cell-based
Conditions: stable GPR40 Elk-1/Gal4-luc+ CHO cell line, 5 hours incubation
Description: An existing stable GPR40 Elk-1/Gal4-luc^+ CHO cell line generated by electroporation and functional cloning was used. Cells were maintained in a humidified incubator at 37° C./5% CO2 in complete media containing DMEM/F12 (Gibco, #11039-021), 5% FBS (Gibco, #16140-071) and 1% Glutamine (Gibco, #25030-081). Cell maintenance passages were made at 1:40 dilution every 3-4 days. Forty eight hours prior to assay, 15e6 cells were added to 200 ml of complete media then seeded into a 1200 cm^2-cell factory and returned to a humidified incubator at 37° C./5% CO2. 20 hours prior to assay, the growth media was removed and replaced with 200 ml of serum-free DMEM/F12 to quiesce background activity. At the time of assay, cells were harvested using non-enzymatic cell dissociation solution (Sigma, #C-5914), washed and counted. The 20 hour starve media was collected and used as condition media for cell assay plating. Cells were plated at a concentration of 10,000 cells/well in a total well volume of […] in black 96-well clear bottom polystyrene plates (CoStar, #3904). Test compounds were prepared as serial dilutions in 100% DMSO, then 1 ul was delivered to each well resulting in a final concentration of 1% DMSO. The plates were then returned to a humidified incubator at 37° C./5% CO2 for 5 hours. Following the incubation, the medium was replaced with 50 ul of a 1:1 mixture of SteadyGlo™ (Promega, #E2550) and dPBS containing 1 mM CaCl2 and 1 mM MgCl2. Plates were then sealed and subjected to dark adaptation at room temperature for 10 minutes. Luciferase activity was measured on a Packard TopCount™ microplate scintillation counter using 2 seconds per well count time.
Data analysis was performed using standard methods.
The Normalization Equation used was 100*(Unknown compound response−Background response)/(Agonist Max response−Background response).
The Curve Fit Function used was y=((Vmax*x^n)/(K^n+x^n))+Y2.
A percent max response and pEC50 were recorded for each compound. Although specific pEC50 values are given, these values should be considered exemplary. Those skilled in the art will appreciate the variability in performing and recording the biological activity assays that are herein described. The compounds of the present invention provide a pEC50 of at least 5.0.

T1 sequence (O14842 whole entry): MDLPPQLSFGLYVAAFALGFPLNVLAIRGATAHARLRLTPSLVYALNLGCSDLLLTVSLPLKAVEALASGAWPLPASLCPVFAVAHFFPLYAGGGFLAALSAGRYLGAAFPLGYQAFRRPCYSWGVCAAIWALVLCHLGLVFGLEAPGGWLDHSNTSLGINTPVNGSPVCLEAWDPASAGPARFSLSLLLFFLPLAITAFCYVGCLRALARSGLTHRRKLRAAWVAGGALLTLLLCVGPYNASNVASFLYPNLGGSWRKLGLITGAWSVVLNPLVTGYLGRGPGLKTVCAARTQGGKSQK

| Compound | EC50 [nM] |
| --- | --- |
| Cc1nc(-c2ccc(C(F)(F)F)cc2)sc1CNc1ccc([C@@H]2C[C@H]2C(N)=O)cc1 (racemic) [Example 43, Racemic-(trans)-2-{4-[({4-methyl-2-[4-(trifluoromethyl)phenyl]-1,3-thiazol-5-yl}methyl)amino]phenyl}cyclopropanecarboxamide] | 20 |
| Cc1nc(-c2ccc(C(F)(F)F)cc2)sc1CNc1ccc([C@@H]2C[C@H]2C(=O)NC(C)C)cc1 (racemic) [Example 45, Racemic-(trans)-N-isopropyl-2-{4-[({4-methyl-2-[4-(trifluoromethyl)phenyl]-1,3-thiazol-5-yl}methyl)amino]phenyl}cyclopropanecarboxamide] | 10 |
| Cc1nc(-c2ccc(C(F)(F)F)cc2)sc1CNc1ccc([C@@H]2C[C@H]2C(=O)N(C)C)cc1 (racemic) [Example 46, Racemic-(trans)-N,N-dimethyl-2-{4-[({4-methyl-2-[4-(trifluoromethyl)phenyl]-1,3-thiazol-5-yl}methyl)amino]phenyl}cyclopropanecarboxamide] | 63.1 |
| O=C(NCc1ccncc1)[C@@H]1C[C@H]1c1ccc(NCc2cccc(Oc3ccccc3)c2)cc1 (racemic) [Example 47, Racemic-(trans)-2-[4-({[3-(phenyloxy)phenyl]methyl}amino)phenyl]-N-(4-pyridinylmethyl)cyclopropanecarboxamide] | 10 |
| COc1ccc(CNC(=O)[C@@H]2C[C@H]2c2ccc(NCc3cccc(Oc4ccccc4)c3)cc2)cc1 (racemic) [Example 48, Racemic-(trans)-N-(4-methoxybenzyl)-2-{4-[(3-phenoxybenzyl)amino]phenyl}cyclopropanecarboxamide] | 31.6 |
| O=C(NCc1ccc(C(F)(F)F)cc1)[C@@H]1C[C@H]1c1ccc(NCc2cccc(Oc3ccccc3)c2)cc1 (racemic) [Example 49, Racemic-(trans)-2-{4-[(3-phenoxybenzyl)amino]phenyl}-N-[4-(trifluoromethyl)benzyl]cyclopropanecarboxamide] | 31.6 |
| O=C(NCCN1CCOCC1)[C@@H]1C[C@H]1c1ccc(NCc2cccc(Oc3ccccc3)c2)cc1 (racemic) [Example 50, Racemic-(trans)-N-(2-morpholin-4-ylethyl)-2-{4-[(3-phenoxybenzyl)amino]phenyl}cyclopropanecarboxamide] | 251 |
| O=C(NCC(F)(F)F)[C@@H]1C[C@H]1c1ccc(NCc2cccc(Oc3ccccc3)c2)cc1 (racemic) [Example 51, Racemic-(trans)-2-{4-[(3-phenoxybenzyl)amino]phenyl}-N-(2,2,2-trifluoroethyl)cyclopropanecarboxamide] | 50.1 |
| CC(C)NC(=O)[C@@H]1C[C@H]1c1ccc(NCc2sc(-c3ccc(C(F)(F)F)cc3)nc2C(C)C)cc1 (racemic) [Example 52, Racemic-(trans)-N-isopropyl-2-{4-[({4-isopropyl-2-[4-(trifluoromethyl)phenyl]-1,3-thiazol-5-yl}methyl)amino]phenyl}cyclopropanecarboxamide] | 15.8 |
| O=C(O)[C@@H]1C[C@H]1c1ccc(NCc2cccc(Oc3ccccc3)c2)cc1 (single isomer, unassigned) [Example 25] | 631 |
| Cc1nc(-c2ccc(C(F)(F)F)cc2)sc1CNc1ccc([C@@H]2C[C@H]2C(=O)NCc2ccncc2)cc1 (single isomer, unassigned) [Example 38, Enantiomerically Enriched (trans)-2-{4-[({4-methyl-2-[4-(trifluoromethyl)phenyl]-1,3-thiazol-5-yl}methyl)amino]phenyl}-N-(4-pyridinylmethyl)cyclopropanecarboxamide TFA Salt] | 5.01 |
| Cc1nc(-c2ccc(C(F)(F)F)cc2)sc1CNc1ccc([C@@H]2C[C@H]2C(N)=O)cc1 (single isomer, unassigned) [Example 39, Enantiomerically Enriched (trans)-2-{4-[({4-methyl-2-[4-(trifluoromethyl)phenyl]-1,3-thiazol-5-yl}methyl)amino]phenyl}cyclopropanecarboxamide] | 10 |
| Cc1nc(-c2ccc(C(F)(F)F)cc2)sc1CNc1ccc([C@@H]2C[C@H]2C(=O)NO)cc1 (single isomer, unassigned) [Example 41, Enantiomerically Enriched (trans)-N-hydroxy-2-{4-[({4-methyl-2-[4-(trifluoromethyl)phenyl]-1,3-thiazol-5-yl}methyl)amino]phenyl}cyclopropanecarboxamide] | 6.31 |
| Cc1nc(-c2ccc(C(F)(F)F)cc2)sc1CNc1ccc([C@@H]2C[C@H]2C(=O)NC2CCC2)cc1 (single isomer, unassigned) [Example 42, Enantiomerically Enriched (trans)-N-cyclobutyl-2-{4-[({4-methyl-2-[4-(trifluoromethyl)phenyl]-1,3-thiazol-5-yl}methyl)amino]phenyl}cyclopropanecarboxamide] | 7.94 |
| O=C(O)C1CC1c1ccc(NCc2cccc(Oc3ccccc3)c2)cc1 (single isomer, unassigned; (+)) [Example 26, (+)-(Trans)-2-{4-[(3-phenoxybenzyl)amino]phenyl}cyclopropanecarboxylic Acid] | 3.98 |
| Cc1nc(-c2ccc(C(F)(F)F)cc2)sc1CNc1ccc(C2CC2C(=O)O)cc1 (single isomer, unassigned; (+)) [Example 27, (+)-(Trans)-2-{4-[({4-methyl-2-[4-(trifluoromethyl)phenyl]-1,3-thiazol-5-yl}methyl)amino]phenyl}cyclopropanecarboxylic Acid] | 3.98 |
| O=C(O)C1CC1c1ccc(NCc2cccc(Oc3ccc(Cl)c(Cl)c3)c2)cc1 (single isomer, unassigned; (+)) [Example 28a, (+)-(Trans)-2-{4-[({3-[(3,4-dichlorophenyl)oxy]phenyl}methyl)amino]phenyl}cyclopropanecarboxylic Acid Trifluoroacetate] | 3.16 |
| O=C(O)C1CC1c1ccc(NCc2cccc(Oc3ccccc3)c2)cc1Cl (single isomer, unassigned; (+)) [Example 30a, (+)-(Trans)-2-[2-chloro-4-({[3-(phenyloxy)phenyl]methyl}amino)phenyl]cyclopropanecarboxylic Acid] | 398 |
| O=C(O)C1CC1c1cc(F)c(NCc2cccc(Oc3ccccc3)c2)cc1F (single isomer, unassigned; (+)) [Example 31a, (+)-(trans)-2-[2,5-difluoro-4-({[3-(phenyloxy)phenyl]methyl}amino)phenyl]cyclopropanecarboxylic Acid] | 501 |
| CC(C)NC(=O)C1CC1c1ccc(NCc2cccc(Oc3ccccc3)c2)cc1 (single isomer, unassigned; (+)) [Example 44, (+)-(trans)-N-(1-methylethyl)-2-[4-({[3-(phenyloxy)phenyl]methyl}amino)phenyl]cyclopropanecarboxamide] | 10 |
| Cc1nc(-c2ccc(C(F)(F)F)cc2)sc1CNc1ccc(C2CC2C(=O)O)cc1 (single isomer, unassigned; (-)) [Example 29, (−)-(cis)-2-{4-[({4-methyl-2-[4-(trifluoromethyl)phenyl]-1,3-thiazol-5-yl}methyl)amino]phenyl}cyclopropanecarboxylic Acid] | 316 |
| O=C(O)[C@H]1C[C@@H]1c1ccc(NCc2cccc(Oc3cc(Cl)cc(Cl)c3)c2)cc1 [Example 32, (+)-(trans)-2-{4-[({3-[(3,5-dichlorophenyl)oxy]phenyl}methyl)amino]phenyl}cyclopropanecarboxylic Acid trifluoroacetate] | 5.01 |
